{"source": "patent EP3452027B1", "about": "“USE OF […] TREAT SEA LICE” (priority 2016, dated 2017)", "key": {"fish embryos": {"system": "fish embryos", "settings": "100µM bergapten; cited from earlier work"}, "Argulus": {"system": "Argulus", "settings": "for Argulus detachment from goldfish and koi carp: after two hours"}, "[1]": {"system": "Lepeophtheirus salmonis sea lice"}, "[2]": {"system": "Lepeophtheirus salmonis sea lice", "assay": "whole plant or invertebrate", "settings": "24 h"}}, "note": "Like-named read-outs stand apart in the source and are kept apart here."}
{"smiles": "COc1c2ccoc2cc2oc(=O)ccc12", "note": "[bergapten, 5-methoxypsoralen]", "values": [{"measurement": "fish embryos killed", "setting": "fish embryos", "result": "one third"}, {"measurement": "remaining viable embryos with defects in anterior-posterior patterning", "setting": "fish embryos", "result": "half"}]}
{"smiles": "C=C(C)[C@@H]1CCC2=CC(=O)C[C@@H](C)[C@]2(C)C1", "note": "[nootkatone]", "values": [{"measurement": "Argulus detachment from goldfish and koi carp", "setting": "Argulus; 2ppm nootkatone in tap water", "result": "no parasites could be seen"}, {"measurement": "Argulus detachment from goldfish and koi carp", "setting": "Argulus; 6ppm nootkatone in tap water", "result": "no parasites could be seen"}, {"measurement": "mortality of Argulus", "setting": "Argulus; in vivo", "result": 100, "unit": "%"}, {"measurement": "concentrations at which no viable sea lice were observed", "setting": "[1]; 24 hours post-exposure, microscopic observation", "result": "≥ 38", "unit": "mg/L"}, {"measurement": "Males EC90", "setting": "[1]; adult male L. salmonis, 24 hours post exposure", "result": 24.27, "unit": "µg/mL"}, {"measurement": "Females LC50", "setting": "[1]; female, Lepeophtheirus salmonis (sea louse), in vivo", "result": 9.70, "unit": "µg/mL"}, {"measurement": "Males LC50", "setting": "[1]; male, Lepeophtheirus salmonis (sea louse), in vivo", "result": 16.40, "unit": "µg/mL"}, {"measurement": "EC50", "setting": "[2]; read-out: Females EC50", "result": 9.17, "unit": "µg/mL"}, {"measurement": "EC90", "setting": "[2]; read-out: Females EC90, adult female (pre-ovigerous) L. salmonis, 24 hours post exposure", "result": 13.4, "unit": "µg/mL"}, {"measurement": "LC50", "setting": "[2]; read-out: Females LC50", "result": 9.69, "unit": "µg/mL"}, {"measurement": "LC50", "setting": "[2]; read-out: LC50 for the total sea lice population (dose that would kill 50% of the total population)", "result": 13.5, "unit": "µg/mL"}, {"measurement": "EC50", "setting": "[2]; read-out: Males EC50", "result": 11.5, "unit": "µg/mL"}, {"measurement": "EC90", "setting": "[2]; read-out: Males EC90, adult male L. salmonis, 24 hours post exposure", "result": 24.3, "unit": "µg/mL"}, {"measurement": "LC50", "setting": "[2]; read-out: Males LC50", "result": 16.4, "unit": "µg/mL"}]}
